Values of other authors, collected in patent US20210251944A1, “METHODS FOR TREATING A CANCER RESISTANT TO AT LEAST ONE TYROSINE KINASE INHIBITOR” (Del Mar Pharmaceuticals (BC) Ltd., priority 2012, published 2021).
Where two headings read alike, the source gives them in different places.

Assays:
CML = conditions: cited from earlier work; for rate of incomplete cytogenetic responses to imatinib: CML
[1] = target: glycogen synthase kinase-3β (GSK-3β) (Homo sapiens, UniProt P49841); conditions: cited from earlier work
[2] = cited from earlier work

glycogen synthase kinase-3β (GSK-3β), sequence (P49841 whole entry, species assumed): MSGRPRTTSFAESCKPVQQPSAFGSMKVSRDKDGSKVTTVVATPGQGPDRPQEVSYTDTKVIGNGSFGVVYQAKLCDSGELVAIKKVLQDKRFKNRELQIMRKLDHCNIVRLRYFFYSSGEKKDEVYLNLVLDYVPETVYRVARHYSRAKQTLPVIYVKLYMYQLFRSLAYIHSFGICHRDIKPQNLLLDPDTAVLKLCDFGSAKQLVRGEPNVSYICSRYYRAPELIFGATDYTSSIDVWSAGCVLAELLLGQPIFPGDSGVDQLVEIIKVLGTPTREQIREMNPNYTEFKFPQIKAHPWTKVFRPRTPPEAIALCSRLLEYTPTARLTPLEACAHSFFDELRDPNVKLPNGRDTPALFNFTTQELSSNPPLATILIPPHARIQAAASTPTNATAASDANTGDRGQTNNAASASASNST

SMILES: Cc1ccc(NC(=O)c2ccc(CN3CCN(C)CC3)cc2)cc1Nc1nccc(-c2cccnc2)n1 [imatinib]
- rate of incomplete cytogenetic responses to imatinib (CML; individuals in East Asia): ~50%
- rate of incomplete cytogenetic responses to imatinib (CML; individuals in Europe and North America): 26%
- overall odds ratio for resistant disease, patients with the BIM deletion polymorphism compared to those without (CML; chronic phase CML, first-line imatinib 400 mg/day, ELN criteria): 2.94

SMILES: CN1C(=O)/C(=C2/C(=O)Nc3ccccc32)c2ccccc21 [Meisoindigo, meisoindigo]
- concentration for inhibition of glycogen synthase kinase-3β (GSK-3β) [1]: 5 to 50 nM

SMILES: O[C@H]([C@H](O)[C@@H](O)CBr)[C@H](O)CBr [Dibromodulcitol, dibromodulcitol]
- absorption by the oral route [2]: rapid and fairly complete
